Data on 7 molecules can be found in patent US20260285853A1, “COMPOUNDS AND METHODS FOR MODULATING SPLICING” (REMIX THERAPEUTICS INC., priority 2023, published 2026).

Common to all, as to type: cell-based
The subject of test [1] is HTT mRNA. The test is described as follows: Gene panel canonical junction qPCR assay, decrease in CJ mRNA, Table 3. The following applies: decrease in canonical junction (CJ) mRNA, gene panel qPCR, Table 3. In outline: (§1)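 IC50 denotes the concentration giving 50% decrease in canonical-junction mRNA, fitted by 4-parameter logistic to percentage response derived from ΔΔCt versus housekeeping gene and DMSO control. Cells (A673 or K562) exposed 24 h to 11-point 3-fold serial dilutions from 10 uM top, DMSO ≤0.25%; junction-spanning primer/probe qPCR.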

In test [2] the test system is MYB mRNA. The description is as above. The following applies: decrease in canonical junction (CJ) mRNA, gene panel qPCR, Table 3. In outline: as §1
For test [3], the system named is SH-SY5Y (human neuroblastoma) cells. The experiment in a line: Cell viability, Cell Titer Glo 2.0 assay. The following applies: read-out: Viability SHSY5Y.3 GI50. The method in brief:
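Viability was read by CellTiter-Glo 2.0 luminescence after a 72-hour compound exposure at 37° C. under 5% CO2. Cells were in IMDM plus 10% FBS containing 0.1% DMSO, and medium-only wells gave the blank.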

For test [4], the system named is HTT mRNA. The experiment in a line: Splicing RT-qPCR assay (THP), Table 2A. The following applies: Table 2A (THP); for AC50: AJ mRNA increase, read-out: HTT AJ (increase in alternative junction mRNA, AC50); for IC50: CJ mRNA decrease, read-out: HTT CJ (decrease in canonical junction mRNA, IC50).
The test system of test [5] is MYB mRNA. The experiment in a line: Splicing RT-qPCR assay (THP), Table 2A. As to conditions: Table 2A (THP); for AC50: AJ mRNA increase, read-out: MYB AJ (increase in alternative junction mRNA, AC50); for IC50: CJ mRNA decrease, read-out: MYB CJ (decrease in canonical junction mRNA, IC50).

Each structure is given as a SMILES string.

As to `COc1cc2nc(C)cn2cc1NC(=O)c1cnc(N2CCC(NC3CC3)CC2)c2cn(C)nc12` [Compound 440, 4-[4-(cyclopropylamino)-1-piperidyl]-N-(7-methoxy-2-methyl-imidazo[1,2-a]-pyridin-6-yl)-2-methyl-pyrazolo[4,3-c]-pyridine-7-carboxamide], the IC50 was 1000 to 10000 nM in test [1], 100 to 1000 nM in test [2], 1000 to 10000 nM in test [4] and 100 to 1000 nM in test [5]. Also, the GI50 in test [3] is 100 to 1000 nM. The AC50 in test [4] is 1000 to 10000 nM; in test [5] it was under 100 nM.

As for `COc1cc2nn(C)cc2cc1NC(=O)c1c(NCCO)cc(N2CCC(NC3CC3)CC2)c2cn(C)nc12` [Compound 441, 4-[4-(cyclopropylamino)-1-piperidyl]-6-(2-hydroxyethylamino)-N-(6-methoxy-2-methyl-indazol-5-yl)-2-methyl-indazole-7-carboxamide], the IC50 in test [1], in test [2], in test [4] and in test [5] was 1000 to 10000 nM each time. For the same molecule, the concentration for 50% growth inhibition (GI50) in test [3] is 1000 to 10000 nM. The AC50 in test [4] and in test [5] was 1000 to 10000 nM in each case.

For the molecule `COCCNc1cc(N2CCC(NC3CC3)CC2)c2cn(C)nc2c1C(=O)Nc1cc2cn(C)nc2cc1OC` [Compound 442, 4-[4-(cyclopropylamino)-1-piperidyl]-6-(2-methoxyethylamino)-N-(6-methoxy-2-methyl-indazol-5-yl)-2-methyl-indazole-7-carboxamide], the IC50 in test [1], in test [2], in test [4] and in test [5] was over 10000 nM throughout. Further, in test [3], the GI50 is 1000 to 10000 nM. The concentration at half-maximal activity (AC50) in test [4] and in test [5] was over 10000 nM in each case.

For the molecule `COc1cc2nn(C)cc2cc1NC(=O)c1ccc(N2CCC(NC3CC3)CC2)c2cc(CO)nn12` [Compound 443, 4-(4-(cyclopropylamino)piperidin-1-yl)-2-(hydroxymethyl)-N-(6-methoxy-2-methyl-2H-indazol-5-yl)pyrazolo[1,5-a]pyridine-7-carboxamide 2,2,2-trifluoroacetate], the IC50 in test [1], in test [2], in test [4] and in test [5] was 100 to 1000 nM in each case. In addition, in test [3], the GI50 lay within 100 to 1000 nM. Moreover, the results for the AC50 in test [4] and in test [5] were 100 to 1000 nM and under 100 nM, respectively.

In the case of `COc1cc2nn(C)cc2cc1NC(=O)c1ccc(N2CCC(NC3CC3)CC2)c2cn(C)nc12` [Compound 444, 4-[4-(cyclopropylamino)-1-piperidyl]-N-(6-methoxy-2-methyl-indazol-5-yl)-2-methyl-indazole-7-carbox-amide], the half-maximal inhibitory concentration (IC50) in test [1] fell in the range of 1000 to 10000 nM; in test [2], 100 to 1000 nM; in test [4], 1000 to 10000 nM; in test [5] it was 100 to 1000 nM. The concentration for 50% growth inhibition (GI50) in test [3] is 100 to 1000 nM. Further, the AC50 in test [4] is 1000 to 10000 nM; in test [5] it was under 100 nM.

In the case of `COc1cc2nn(C)cc2c(Cl)c1NC(=O)c1c(F)cc(N2CCC(NC3CC3)CC2)c2cn(C)nc12` [Compound 445, N-(4-chloro-6-methoxy-2-methyl-indazol-5-yl)-4-[4-(cyclopropylamino)-1-piperidyl]-6-fluoro-2-methyl-indazole-7-carboxamide 2,2,2-trifluoroacetate], the IC50 in test [1], in test [2], in test [4] and in test [5] was over 10000 nM in each case. The 50% growth inhibitory concentration (GI50) in test [3] is over 10000 nM. In addition, the AC50 in test [4] and in test [5] was over 10000 nM throughout.

On to `COc1cc2nn(C)cc2cc1C#Cc1c(F)cc(N2CCC(NC3CC3)CC2)c2cn(C)nc12` [Compound 446, N-cyclo-propyl-1-[6-fluoro-7-[2-(6-methoxy-2-methyl-indazol-5-yl)-ethynyl]-2-methyl-indazol-4-yl]-piperidin-4-amine], for which the half-inhibitory concentration (IC50) in test [1], in test [2], in test [4] and in test [5] was 1000 to 10000 nM each time. Besides, in test [3], the GI50 fell in the range of 1000 to 10000 nM. Also, the half-maximal activity concentration (AC50) in test [4] and in test [5] was over 10000 nM throughout.
